From patent publication US20020160968A1, “Inhibitors of cellular niacinamide mononucleotide formation and their use in cancer therapy” (Klinge Pharma GmbH, priority 1999, published 2002)
Where two headings read alike, the source gives them in different places.

Key:
[1] = system: HepG2 cells; assay: Cell growth under high-density conditions (SRB assay), delayed cell death (DCD); assay type: cell-based, human; settings: high density HepG2 cultures; for minimal effective concentration: Homo sapiens; for Tox. (effective (toxic) concentration) in DCD: toxic compounds, rapid decrease in cell numbers
[2] = biological target: T1, niacinamide phosphoribosyltransferase (NAPRT, EC 2.4.2.12) (Homo sapiens, UniProt P43490); assay: Niacinamide phosphoribosyltransferase (NAPRT) assay, protamine-treated cytoplasmic fraction of K-562 cells; assay type: biochemical; settings: for NAM: niacinamide mononucleotide formed, controls 79.1 and 71.8; for NA: niacinamide remaining, controls 389.7 and 397.0; for NA [%] / NAM [%]: portion of total radioactivity
T1 construct: protamine-treated cytoplasmic fraction of K-562 cells as the enzyme source; endogenous in cells; host or cells: K-562 (ATCC CCL 243), freeze-thaw lysate, 23,000 x g supernatant treated with protamine sulfate
T1 sequence (P43490 whole entry): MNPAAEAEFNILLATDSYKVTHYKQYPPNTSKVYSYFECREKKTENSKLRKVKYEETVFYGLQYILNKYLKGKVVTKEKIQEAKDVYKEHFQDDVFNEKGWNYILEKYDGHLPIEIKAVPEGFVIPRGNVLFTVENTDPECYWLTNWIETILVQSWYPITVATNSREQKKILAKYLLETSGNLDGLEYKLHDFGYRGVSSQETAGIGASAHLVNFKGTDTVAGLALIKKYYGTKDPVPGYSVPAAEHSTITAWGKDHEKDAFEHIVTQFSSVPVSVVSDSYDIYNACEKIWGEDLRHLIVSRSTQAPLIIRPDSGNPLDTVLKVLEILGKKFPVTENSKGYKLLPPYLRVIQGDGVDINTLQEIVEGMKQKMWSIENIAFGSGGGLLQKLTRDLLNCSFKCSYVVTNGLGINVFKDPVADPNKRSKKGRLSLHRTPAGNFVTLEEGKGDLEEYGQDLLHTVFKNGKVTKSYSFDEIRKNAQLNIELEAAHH
Experimental: The effect of the compounds on the enzyme niacinamide phosphoribosyltransferase (NAPRT, EC 2.4.2.12) was investigated using for example protamine-treated cytoplasmic fraction of K-562 cells as the enzyme source according to the NAPRT assay described in the experimental part below. The investigated compounds were used in concentrations of 10 μM, except for K22387 and K22133 where the concentration was 1 μM.
The assay is based on the amount of radioactive incorporation from ^14C-labelled niacinamide into niacinamide mononucleotide (NAM). NAM is subsequently separated from niacinamide (NA) by thin-layer chromatography and its quantity is determined by autoradiography.
Niacinamide Phosphoribosyltransferase (NAPRT) Assay
The human cell line K-562 (chronic myelogenous leukaemia) is obtained from the American Type Culture Collection (ATCC CCL 243), Rockville, Md., USA. The K-562 cells are cultured in RPMI (Sigma, Deisenhofen, Germany, Product No.: R6504) containing 10% foetal calf serum (PAN Systems GmbH, Aidenbach, Germany), 2.2 g/l NaHCO3 (Merck, Darmstadt, Germany), 50,000 IU/l penicillin and 50 mg/l streptomycin (Sigma).
The K-562 cells are grown in RPMI supplemented with 10% FCS at 37° C. and 100% humidity in a 5% CO2 atmosphere up to a density of 2×10^6 cells per ml. Under these conditions, the cells grow logarithmically with a generation time of 24 hours. The cells are harvested by aspiration and centrifugation (250×g, 10 min, RT). Thereafter, the cells are washed at least 3 times by repeated centrifugation (250×g, 10 min, RT) and resuspension in CMF-PBS. After counting the cell suspension in a haematocytometer, the cells are spun into a tight pellet (390×g, […], RT) and the supernatant is carefully drawn off with a Pasteur pipette. The cells are then vortexed into suspension in sufficient lysis buffer to give a final concentration of 3×10^7 cells per ml. The suspension is frozen at −80° C. for at least one day and thawed slowly at room temperature to break up the cells. The breakage is usually greater than 95%, as determined by trypan blue exclusion. Following centrifugation at 23,000×g for 90 min at 0° C., the clarified supernatant is recovered on ice and 70 μl of 1% protamine sulfate is added per ml of supernatant. After 15 min on ice, the cloudy suspension is centrifuged a further 30 min at 23,000×g and 0° C. The final supernatant is stored in small aliquots at […] This supernatant contains about 950 to 1440 μg protein per ml. 120 to 140 μg protein per sample is used in the NAPRT assay (total assay volume: 0.5 ml).
The niacinamide phosphoribosyltransferase activity is determined in a reaction solution of 0.5 ml consisting of 5 mM MgCl2, 2 mM ATP, 0.5 mM PRPP, and [^14C]niacinamide (10^−5 M to 10^−7 M) in 50 mM Tris buffer pH 8.8 (final concentrations in the assay). The reaction is started by adding 100 to 120 μl cell extract. After incubation for 1 hour at 37° C., the enzyme reaction is stopped by adding cold niacinamide (50 μl of a 100 mM niacinamide solution per 0.5 ml reaction mixture) and by heating on a heating block (2 min, 105° C.). The precipitate is removed by centrifugation (2,500×g, 10 min, 4° C.) and the supernatant is collected into a […] polypropylene vial with screw cap and stored at −20° C. until further analysis. A 10 μl aliquot is taken from the supernatant to determine the total amount of radioactivity.
The ^14C-labelled components of the reaction mixture are separated and identified using thin-layer chromatography (TLC). 5 to 7.5 μl of each sample is transferred to a cellulose TLC foil using an automated sample applicator. The cellulose foil is developed using 1 M NH4 acetate:ethanol (3:7) as solvent. The chromatogram is run with added non-radioactive standards of NAD, NADP, NAM and niacinamide, and the spots were identified by UV absorption (RF values see Table 7). For autoradiography, the chromatogram is exposed to an imaging plate BAS-IIIs in a hypercassette for at least two days. […]

[3] = system: Hep G2 cells; assay: Nicotinamide Reversibility Assay / cell growth inhibition of Hep G2 cells (SRB, six days); assay type: cell-based, human; settings: for IC50: read-out: Cell growth inhibition IC50-values [μM] Hep G2; for Reversal by Niacinamide: Hep G2 cell growth inhibition with added nicotinamide
Experimental: Nicotinamide Reversibility Assay
Hep G2 cells derived from a human liver carcinoma were plated at a density of 20,000 cells/ml in 12-well plastic dishes. Cultivation occurred in Richters IMEM-ZO nutrient medium with 5% fetal calf serum (FCS) in a tissue culture incubator with a gas mixture of 5% CO2 and 95% air at a temperature of 37° C. One day after plating, the culture medium was aspirated from the cells and replaced by fresh medium which contained the respective concentrations of the test compounds and where applicable of the nicotinamide. For the individual concentrations and the controls without test compounds, three-fold batches were done for each. Three days after the beginning of treatment, the medium was again renewed with the test compounds and where applicable the nicotinamide. After six days of compound incubation, the test was ended and the protein amount in the individual wells was determined with the sulforhodamin-B-method (according. to P. Skehan et al.: New Colorimetric Cytotoxicity Assay for Anticancer-Drug Screening. J. Natl. Cancer Inst. 82: 1107-1112, 1990). The IC50-values were taken from the dose-response curves and given as a comparative measurement for the activity of the test compounds.

[4] = system: NAD(P) synthesis from niacinamide in HepG2 cells; assay: Determination of NAD(P) synthesis from [14C]niacinamide in HepG2 cells; assay type: cell-based, human; settings: for NAD(P) % of Control / NAD(P) pmol/mg protein / NAD(P) pmol/10^6 cells: Table 3b; for NAD(P) % of Control / NAD(P) pmol/mg protein: at least 10^-5 M; for NAD(P) pmol/mg protein: control 374.00; for NAD(P) pmol/10^6 cells: toxic compounds at at least 10^-5 M, control 531
Source text: The effect of the compounds on the synthesis of NAD(P) starting from niacinamide was investigated using for example the tumor cell line HepG2 according to the technique described in the experimental part below.
The inhibition of the NAD(P) synthesis from niacinamide by these compounds was investigated in HepG2 cells as described in the section “Material and Methods”. The compounds of Table 3 a were used at a concentration of 10^−5 M. The compounds of Table 3 b were used at concentrations of at least 10^−5 M, except for Doxorubicin where the concentration was 0.3×10^−5 M. As a control, vehicle treated or untreated cells were used.
In these experiments, a pre-incubation period of 17 hrs with the compounds was used, but it turned out that the pre-incubations period could be shortened, for example to 2 hrs, or skipped completely without affecting the inhibition profile. […] Similar results were obtained with the other specific compounds.
For the detection of specific inhibitors of niacinamide mononucleotide formation the following screening assay is especially useful which comprises the following steps: incubating cultured cells selected from HepG2 cells, U-87 MG cells, MCF-7 M1 cells, Caki-1 cells, HL-60 cells, PC3 cells, U-373 MG cells, A549 cells and KG-1a cells in the presence of [^14C]niacinamide and a compound to be tested for its activity to inhibit the cellular formation of niacinamide mononucleotide; effecting lysis of the cells; isolating and separating the [^14C]-labeled compounds and measuring the amount of formed labeled niacinamide mononucleotide, NAD and NADP. More concretely, cultured cells are seeded in a defined density in culture dishes, followed by incubation in the presence of a test compound and by the addition of [^14C]niacinamide for about 0.1 to 6 hrs. The cells are then lysed with perchloric acid and the resulting extract is neutralized. Finally, the [^14C]-labeled compounds are separated by thin-layer chromatography on cellulose matrices followed by UV detection and autoradiography. Non-radioactive niacinamide derivatives are used as standards. This assay allows simple and effective screening and selection of the compounds according to the invention.
Determination of NAD(P) Synthesis from [^14C]Niacinamide
The cells were detached from 75 cm^2 flasks by removing the growth medium and adding 3 ml trypsin/EDTA solution to each flask. After about 5 minutes incubation at 37° C., when the cells were detached from the surface of the dishes, trypsinization was stopped by adding 3 ml Richter's IMEM-ZO medium containing 10% FCS. The cells were suspended by repeated pipetting. For predilution, an aliquot of 20 μl was added to 10 ml Casyton isotonic solution (No. 043-90037P, Schärfe System, Reutlingen, Germany) using a Sysmex Auto Dilutor Type AD-260 (Toa, Medical Electronics Co. Ltd., Kobe, Japan). The cell number was determined by electronic cell volume measurements and counting with a CASY 1 Cell Counter+Analyzer System, Model TTC (Schärfe System, Reutlingen, Germany) equipped with a 60 μm capillary. Following dilution in IMEM-ZO containing 10% FCS, the cells were finally seeded at a density of 4×10^6/10 ml per sample in Ø 10 cm tissue culture dishes (Greiner, Frickenhausen, Germany) and incubated at 37° C. in a humidified atmosphere of 5% CO2 in air.
After one day, when the cells were adherent to the dishes, the cultures were replenished with IMEM-ZO containing 5% FCS plus the test compound or the vehicle. […] The cells were then incubated at 37° C. for 17 hours in a humidified atmosphere of 5% CO2 in air. This preincubation period is not necessary to achieve a distinct inhibitory action of the compounds and can be shortened for example to 2 or 0 hours. After this period of time, the medium was again discarded and 4 ml HEPES-buffered IMEM-ZO containing the test compound or the vehicle and 0.5 μCi/ml [^14C]niacinamide were added to each culture for an additional 5 hours at 37° C. and 100% humidity. […]

[5] = minimum concentration which, despite initial growth, induced cell death below the number of initially seeded cells, Table 2
[6] = Homo sapiens, HepG2, 144 h, Hep G2, six days of compound incubation, SRB
[7] = compound 10 μM, controls 16.88 and 15.32
[8] = compound 10 μM, controls 83.12 and 84.68

Structure (SMILES) | minimal effective concentration ([1]; Table 5) [µM] | minimal effective concentration [1, 5] [µM] | IC50 [3, 6] [µM] | NAM ([2]; compound 10 μM) [pmol/h] | NA ([2]; compound 10 μM) [pmol/h] | NAM [%] [2, 7] [%] | NA [%] [2, 8] [%] | Tox. (effective (toxic) concentration) in DCD [1] | NAD(P) % of Control [4] [%] | NAD(P) pmol/mg protein [4] [pmol/mg protein] | NAD(P) pmol/10^6 cells [4] [pmol/10^6 cells] | Influence of the addition of nicotinamide on the action on cell growth (FIGS. 20 to 27) ([3]; Hep G2) | Reversal by Niacinamide [3] | also measured
O=C(/C=C/c1cccnc1)NCCCCCCCC(c1ccccc1)c1ccccc1 [Compound K22133, N-(8,8-diphenyl-octyl)-3-pyrid-3-yl-acrylamide] | 0.03 | 0.03 | 0.02 |  |  |  |  |  |  |  |  |  |  | NAM ([2]; compound 1 μM): 0.0 pmol/h; NA ([2]; compound 1 μM): 468.8 pmol/h; NA [%] ([2]; compound 1 μM): 100.00%; NAM [%] ([2]; compound 1 μM): 0.00%
O=C(NCCCCCCNC(=O)NCc1cccnc1)NCCC(c1ccccc1)c1ccccc1 [Compound K22158, 1-(3,3-diphenylpropyl)-3-[6-(3-pyridine-3-yl-methylureido)-hexyl]-urea] | 1 | 1 | 0.1 | 0.0 | 468.8 | 0.00 | 100.00 |  |  |  |  |  |  | 
O=C(CCc1cccnc1)NCCCCC1CCN(CCCCC2CCN(C(c3ccccc3)c3ccccc3)CC2)CC1 [Compound K22316, N-(4-(1-[4-{1-benzhydryl-piperidine-4-yl)-butyl]-piperidine-4-yl}-butyl)-3-pyridine-3-yl-propanoic acid amide] | 1 | 1 | 0.9 | 0.0 | 468.8 | 0.00 | 100.00 |  |  |  |  |  |  | 
NC(=O)c1c[se]c([C@@H]2O[C@H](CO)[C@@H](O)[C@H]2O)n1 [Selenazofurin, reference compound] |  |  |  |  |  |  |  | Tox. 30 μM | 70.2 | 372.29 | 372.29 | no measurable influence | no | Cellular NAD synthesis inhibition [%] ([4]; 10 μM): 30 (10 μM) %; IC50 ([3]; Hep G2, six days of compound incubation, SRB): 0.7 µM
NC(=O)c1csc([C@@H]2O[C@H](CO)[C@@H](O)[C@H]2O)n1 [Tiazofurin, reference compound] |  |  |  |  |  |  |  | Tox. 300 μM | 78.1 | 292.30 | 414.47 | no measurable influence | no | inhibition at 100 µM ([4]; Homo sapiens, 100 μM, read-out: Cellular NAD synthesis inhibition [%]): 22%; IC50 ([3]; Homo sapiens, HepG2, 144 h): 10 µM
